Assay results published in patent publication US10633394B2, “Heterocyclic derivatives and use thereof” (C & C RESEARCH LABORATORIES, priority 2014, dated 2020).

Columns and labels:
Assay type in all cases: cell-based
[1] = system: NCI-N87; test: Cell growth inhibition assay (CellTiter-Glo), stomach cancer cell line NCI-N87; settings: Homo sapiens; NCI-N87 cells, 96 hours
Experimental: (§1) The inhibitory effects of the compounds of the present invention against the growth of cancer cells were evaluated as shown below. The cancer cell lines including stomach cancer cell line (NCI-N87) and breast cancer cell line (MDA-MB-468) were cultured under the protocol provided by each supplier. Each type of cells to be used in experiments was sub-cultured in a 96-well plate by counting the exact number of cells using Tali™ Image-based Cytometer (Life Technologies). In a 96-well plate, NCI-N87 was employed with 5,000 cells/well; and MDA-MB-468 was employed with 10,000 cells/well. The cells were treated with the compounds listed in Examples which were diluted in various concentrations. Upon completion of the compounds treatment, NCI-N87 cells were cultured at 37° C. under 5% CO2 for 96 hours, and MDA-MB-468 cells were cultured at 37° C. in air for 96 hours. Subsequently, the cells were observed under microscope and drug precipitation and particular findings were investigated and recorded. And then, the 96-well plate was placed at room temperature for 30 minutes, added with 20 μL/well of CellTiter-Glo solution (Cat No. G7573, Promega) and shaken for 10 minutes, followed by being subjected to the measurement using PHERAstar™ microplate reader (BMG LABTECH) according to the supplier's general luminometer protocol. Wells where only culture liquid added without cell plating were used as a negative control, whereas wells where culture liquid containing 0.1% DMSO instead of the compounds listed in Examples were used as a positive control.

[2] = molecular target: T1, STAT3 (Homo sapiens, UniProt P40763); test: STAT3 reporter gene (luciferase) assay in LNCaP stable cell line stimulated with IL-6; settings: LNCaP stable cell line (pSTAT3-TA-luc), IL-6 10 ng/mL, 24 hours
T1 construct: plasmid pSTAT3-TA-luc), which contains a stably operating STAT3 promoter; endogenous in cells
Experimental: 1-1) Experiment on the Inhibition of STAT3 Activity
A human prostate cancer cell line (LNCaP stable cell line; plasmid pSTAT3-TA-luc), which contains a stably operating STAT3 promoter, was cultured in RPMI1640 medium (Cat No. 11875, Life Technologies) containing 10% fetal bovine serum (FBS) (Cat No. SH30396, Thermo Scientific) and 150 μg/mL G-418 solution (Cat No. 04 727 894 001, Roche). The reporter gene assay using LNCaP stable cell line was performed in RPMI1640 medium containing 3% DCC-FBS without G-418 solution. LNCaP stable cells were plated in two (2) white 96-well plates with 30,000 cells/50 μL in each well. The cells were cultured at 37° C., under 5% CO2 for 24 hours, and then treated with the compounds listed in Examples which were diluted in various concentrations. Subsequently, IL-6 was added to each well with a final concentration of 10 ng/mL. Upon completion of the treatment with the compounds and IL-6, the cells were cultured at 37° C., under 5% CO2 for 24 hours. The plates were observed under microscope and drug precipitation and particular findings were investigated and recorded.
The luciferase assay and the cell viability assay were performed respectively with one of the two plates. For the luciferase assay, the liquid media in the 96-well plate was removed, and then, 20 μL of passive cell lysis buffer was added to each well. After shaking the plate for 30 minutes, luciferase activities of each well were measured in a PHERAstar™ microplate reader (BMG LABTECH) using a luciferase assay system (Cat No. E1501, Promega). For the cell viability assay, the 96-well plate was placed at room temperature for 30 minutes, added with 20 μL/well of CellTiter-Glo solution (Cat No. G7573, Promega), and shaken for 10 minutes in order to measure cytotoxicity caused by the compounds listed in Examples with a PHERAstar™ microplate reader (BMG LABTECH). Wells without 0.1% DMSO and stimulation were used as a negative control and wells with 0.1% DMSO and stimulation were used as a positive control.
The results of evaluation on the inhibitory effect of the compounds listed in the Examples on the dimerization of STAT3 and STAT1 obtained via the STAT3 and STAT1 reporter gene assays are shown in Table 6 below.

[3] = system: MDA-MB-468; test: Cell growth inhibition assay (CellTiter-Glo), breast cancer cell line MDA-MB-468; settings: Homo sapiens; MDA-MB-468 cells, 96 hours
Experimental: as §1

T1 sequence (P40763 whole entry): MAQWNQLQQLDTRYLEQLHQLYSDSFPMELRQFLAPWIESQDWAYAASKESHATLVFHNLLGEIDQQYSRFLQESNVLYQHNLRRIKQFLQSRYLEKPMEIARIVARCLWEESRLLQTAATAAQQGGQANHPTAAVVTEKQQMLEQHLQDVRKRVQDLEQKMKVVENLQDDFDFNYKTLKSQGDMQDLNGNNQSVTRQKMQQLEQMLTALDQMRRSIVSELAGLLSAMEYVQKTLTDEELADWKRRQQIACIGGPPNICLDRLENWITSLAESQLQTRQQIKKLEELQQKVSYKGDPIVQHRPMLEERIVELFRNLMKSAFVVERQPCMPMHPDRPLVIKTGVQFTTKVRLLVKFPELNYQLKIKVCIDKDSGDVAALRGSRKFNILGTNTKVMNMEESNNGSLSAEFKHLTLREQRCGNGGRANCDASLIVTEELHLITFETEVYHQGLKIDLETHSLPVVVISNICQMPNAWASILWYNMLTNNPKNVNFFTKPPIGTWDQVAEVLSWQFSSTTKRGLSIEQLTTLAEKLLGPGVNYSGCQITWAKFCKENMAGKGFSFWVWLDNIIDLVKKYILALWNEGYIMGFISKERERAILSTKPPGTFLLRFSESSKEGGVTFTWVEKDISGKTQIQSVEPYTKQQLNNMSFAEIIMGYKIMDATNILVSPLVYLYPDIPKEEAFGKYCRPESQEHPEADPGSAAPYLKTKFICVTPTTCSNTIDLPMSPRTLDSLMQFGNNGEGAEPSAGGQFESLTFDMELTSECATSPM

IC50 [1] [µM]	IC50 [2] [µM]	IC50 [3] [µM]	SMILES
1.2	0.039	0.078	[N-]=[N+]=NC1CCOc2cc3sc(C(=O)Nc4cc(Cl)nc(Oc5ccc(Cl)cc5)c4)cc3cc21 (stereo not drawn) [Example 55, 4-azido-N-(2-chloro-6-(4-chlorophenoxy)pyridin-4-yl)-3,4-dihydro-2H-thieno[3,2-g]chromene-7-carboxamide]
0.045	0.01		CS(=O)(=O)N1CCCOc2cc3sc(C(=O)Nc4cc(Cl)nc(Oc5ccc(Cl)cc5)c4)cc3cc21 [Example 3, N-(2-chloro-6-(4-chlorophenoxy)pyridin-4-yl)-1-(methylsulfonyl)-1,2,3,4-tetrahydrothieno[3′,2′:4,5]benzo[1,2-b][1,4]oxazepine-8-carboxamide]
0.067	0.029	0.023	CS(=O)(=O)C1CCCOc2cc3sc(C(=O)Nc4cc(Cl)nc(Oc5ccc(Cl)cc5)c4)cc3cc21 (stereo not drawn) [Example 9, N-(2-chloro-6-(4-chlorophenoxy)pyridin-4-yl)-5-(methylsulfonyl)-2,3,4,5-tetrahydrothieno[3′,2′:4,5]benzo[1,2-b]oxepine-8-carboxamide]
0.031	0.016	0.0089	COc1cc(F)cc(Oc2cc(NC(=O)c3cc4cc5c(cc4s3)OCCC5S(C)(=O)=O)cc(Cl)n2)c1 (stereo not drawn) [Example 32, N-(2-chloro-6-(3-fluoro-5-methoxyphenoxy)pyridin-4-yl)-4-(methylsulfonyl)-3,4-dihydro-2H-thieno[3,2-g]chromene-7-carboxamide]
0.0049	0.0078	0.0029	CS(=O)(=O)C1CCOc2cc3sc(C(=O)Nc4cc(Cl)nc(Oc5ccc(F)c(Cl)c5)c4)cc3cc21 (stereo not drawn) [Example 27, N-(2-chloro-6-(3-chloro-4-fluorophenoxy)pyridin-4-yl)-4-(methylsulfonyl)-3,4-dihydro-2H-thieno[3,2-g]chromene-7-carboxamide]
0.011	0.0039	0.0023	CS(=O)(=O)C1CCOc2cc3sc(C(=O)Nc4cc(Cl)nc(Oc5ccc(C(F)(F)F)cc5)c4)cc3cc21 (stereo not drawn) [Example 17, N-(2-chloro-6-(4-(trifluoromethyl)phenoxy)pyridin-4-yl)-4-(methylsulfonyl)-3,4-dihydro-2H-thieno[3,2-g]chromene-7-carboxamide]
0.035	0.018	0.0089	Cc1ccc(Oc2cc(NC(=O)c3cc4cc5c(cc4s3)OCCC5S(C)(=O)=O)cc(Cl)n2)cc1 (stereo not drawn) [Example 15, N-(2-chloro-6-(p-tolyloxy)pyridin-4-yl)-4-(methylsulfonyl)-3,4-dihydro-2H-thieno[3,2-g]chromene-7-carboxamide]
0.018	0.0066	0.0059	COc1cc(Cl)cc(Oc2cc(NC(=O)c3cc4cc5c(cc4s3)OCC[C@@H]5S(C)(=O)=O)cc(Cl)n2)c1 [Example 49, (S)—N-(2-chloro-6-(3-chloro-5-methoxyphenoxy)pyridin-4-yl)-4-(methylsulfonyl)-3,4-dihydro-2H-thieno[3,2-g]chromene-7-carboxamide]
0.071	0.03	0.017	COc1ccc(Oc2cc(NC(=O)c3cc4cc5c(cc4s3)OCCC5S(C)(=O)=O)cc(Cl)n2)cc1 (stereo not drawn) [Example 22, N-(2-chloro-6-(4-methoxyphenoxy)pyridin-4-yl)-4-(methylsulfonyl)-3,4-dihydro-2H-thieno[3,2-g]chromene-7-carboxamide]
0.024	0.0098	0.0093	Cc1cccc(Oc2cc(NC(=O)c3cc4cc5c(cc4s3)OCCC5S(C)(=O)=O)cc(Cl)n2)c1 (stereo not drawn) [Example 33, N-(2-chloro-6-(m-tolyloxy)pyridin-4-yl)-4-(methylsulfonyl)-3,4-dihydro-2H-thieno[3,2-g]chromene-7-carboxamide]
0.0055	0.003		CS(=O)(=O)N1CCCc2cc3sc(C(=O)Nc4cc(Cl)nc(Oc5ccc(Cl)cc5)c4)cc3cc21 [Example 6, N-(2-chloro-6-(4-chlorophenoxy)pyridin-4-yl)-5-(methylsulfonyl)-5,6,7,8-tetrahydrothieno[2,3-g]quinoline-2-carboxamide]
1.2	0.17		CC1(C)CN(S(C)(=O)=O)c2cc3cc(C(=O)Nc4cc(Cl)nc(Oc5ccc(Cl)cc5)c4)sc3cc2O1 [Example 2, N-(2-chloro-6-(4-chlorophenoxy)pyridin-4-yl)-3,3-dimethyl-1-(methylsulfonyl)-2,3-dihydro-1H-thieno[3′,2′:4,5]benzo[1,2-b][1,4]oxazine-7-carboxamide]
0.0083	0.0026		CS(=O)(=O)N1CCOc2cc3sc(C(=O)Nc4cc(Cl)nc(Oc5ccc(Cl)cc5)c4)cc3cc21 [Example 1, N-(2-chloro-6-(4-chlorophenoxy)pyridin-4-yl)-1-(methylsulfonyl)-2,3-dihydro-1H-thieno[3′,2′:4,5]benzo[1,2-b][1,4]oxazine-7-carboxamide]
	0.0088		Cc1ccc(Oc2cc(NC(=O)c3cc4cc5c(cc4s3)OCCC5S(C)(=O)=O)cc(Cl)n2)cc1Cl (stereo not drawn) [Example 38, N-(2-chloro-6-(3-chloro-4-methylphenoxy)pyridin-4-yl)-4-(methylsulfonyl)-3,4-dihydro-2H-thieno[3,2-g]chromene-7-carboxamide]
0.019	0.0028		CC(C)(c1ccc(Cl)cc1)c1cc(Cl)cc(NC(=O)c2cc3cc4c(cc3s2)OCCN4S(C)(=O)=O)c1 [Example 56, N-(3-chloro-5-(2-(4-chlorophenyl)propan-2-yl)phenyl)-1-(methylsulfonyl)-2,3-dihydro-1H-thieno[3′,2′:4,5]benzo[1,2-b][1,4]oxazine-7-carboxamide]
0.0091	0.0082		CS(=O)(=O)N1CCNc2cc3sc(C(=O)Nc4cc(Cl)nc(Oc5ccc(Cl)cc5)c4)cc3cc21 [Example 50, N-(2-chloro-6-(4-chlorophenoxy)pyridin-4-yl)-1-(methylsulfonyl)-1,2,3,4-tetrahydrothieno[2,3-g]quinoxaline-7-carboxamide]
4.1	0.93		CC1(C)CCN(S(C)(=O)=O)c2cc3cc(C(=O)Nc4cc(Cl)nc(Oc5ccc(Cl)cc5)c4)sc3cc21 [Example 4, N-(2-chloro-6-(4-chlorophenoxy)pyridin-4-yl)-8,8-dimethyl-5-(methylsulfonyl)-5,6,7,8-tetrahydrothieno[2,3-g]quinoline-2-carboxamide]
	0.014		CS(=O)(=O)C1CCOc2cc3sc(C(=O)Nc4cc(Cl)nc(Oc5cccc(Cl)c5F)c4)cc3cc21 (stereo not drawn) [Example 36, N-(2-chloro-6-(3-chloro-2-fluorophenoxy)pyridin-4-yl)-4-(methylsulfonyl)-3,4-dihydro-2H-thieno[3,2-g]chromene-7-carboxamide]
	0.01		CS(=O)(=O)C1CCOc2cc3sc(C(=O)Nc4cc(Cl)nc(Oc5cc(Cl)ccc5F)c4)cc3cc21 (stereo not drawn) [Example 35, N-(2-chloro-6-(5-chloro-2-fluorophenoxy)pyridin-4-yl)-4-(methylsulfonyl)-3,4-dihydro-2H-thieno[3,2-g]chromene-7-carboxamide]
	0.014		CS(=O)(=O)C1CCOc2cc3sc(C(=O)Nc4cc(Cl)nc(Oc5ccccc5C(F)(F)F)c4)cc3cc21 (stereo not drawn) [Example 39, N-(2-chloro-6-(2-(trifluoromethyl)phenoxy)pyridin-4-yl)-4-(methylsulfonyl)-3,4-dihydro-2H-thieno[3,2-g]chromene-7-carboxamide]
